Experiments:
[1] = tested on: HIV-1 variants resistant to the peptidomimetic protease inhibitors; conditions: cited from earlier work
[2] = tested on: viral aspartate proteases of a variety of HIV type 1 laboratory strains and clinical isolates; conditions: including those resistant to zidovudine and delavirdine; cited from earlier work
HIV protease = target: T1, HIV protease (Human immunodeficiency virus type 1 group M subtype B, UniProt P04585); conditions: in vitro enzymatic inhibition; cited from earlier work
T1 construct: one of the smallest enzymes yet characterized (consisting of only 99 amino acids)

[3] = free acid form; pH of from about 6 to about 7; cited from earlier work
[4] = solubility in polyethylene glycols; assay type: physicochemical; conditions: polyethylene glycols within a defined average molecular weight range
Method: Microemulsion phase diagrams were constructed for systems containing various lipophilic phases, hydrophilic phases, and surfactants. After numerous studies it was determined that a number of pyranone protease inhibitors, including tipranavir, were soluble in polyethylene glycols within a defined average molecular weight range, and could be used to replace propylene glycol and ethanol found in conventional microemulsion formulations of such drugs.

[5] = tested on: clinical isolates with a wide range of resistance to currently available peptidomimetic protease inhibitors; conditions: 105 viruses with more than tenfold resistance to three or four proteinase inhibitors, average 6.1 protease mutations; cited from earlier work
[6] = cited from earlier work
HIV = conditions: antiviral cell culture; cited from earlier work
[7] = tested on: isolates resistant to indinavir, ritonavir and nelfinavir; saquinavir resistance; conditions: cited from earlier work

Structure (SMILES): CCC[C@@]1(CCc2ccccc2)CC(O)=C([C@H](CC)c2cccc(NS(=O)(=O)c3ccc(C(F)(F)F)cn3)c2)C(=O)O1 [tipranavir]
- activity against HIV-1 variants resistant to peptidomimetic protease inhibitors [1]: highly active
- potency against viral aspartate proteases [2]: excellent potency
- Ki (HIV protease): ~0.008 nM
- aqueous solubility [3]: about 10 μg/ml
- solubility in polyethylene glycols [4]: soluble
- share of resistant viruses susceptible [5]: ninety
- Log P [6]: about 6.1
- IC90 (HIV): ~100 nM
- antiviral activity against isolates resistant to indinavir, ritonavir and nelfinavir [7]: retain sustained antiviral activity

Reference: US6555558B2, “Oral dosage self-emulsifying formulations of pyranone protease inhibitors” (priority 2000, dated 2003)
